From PubChem BioAssay AID248 (DTP/NCI, 2004)
Values joined by “and” are separate entries in the source; they are usually repeats but may differ in a detail not shown here. Equal entries are not always repeated. Inconclusive results and toxic doses are left out.

Test system: L1210 leukemia ip in BDF1 mice, survival T/C
Assay: NCI In Vivo Anticancer Drug Screen. Data for tumor model L1210 Leukemia (intraperitoneal) in B6D2F1 (BDF1) mice
Conditions: endpoint: mean survival time, higher = longer survival
Method in brief: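 Read-out is survival time, reported as the treated-group measurement over the vehicle-control measurement.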

[1] = dose: 100.0 mg/kg/injection, schedule: Q01DX001 (ip), vehicle: saline
[2] = dose: 200.0 mg/kg/injection, schedule: Q01DX001 (ip), vehicle: saline
[3] = dose: 400.0 mg/kg/injection, schedule: Q01DX001 (ip), vehicle: saline
[4] = dose: 75.0 mg/kg/injection, schedule: Q01DX001 (ip), vehicle: saline
[5] = dose: 150.0 mg/kg/injection, schedule: Q01DX001 (ip), vehicle: saline
[6] = dose: 25.0 mg/kg/injection, schedule: Q01DX009 (ip), vehicle: Klucel (hydroxypropylcellulose) (HPC)
[7] = dose: 50.0 mg/kg/injection, schedule: Q01DX009 (ip), vehicle: Klucel (hydroxypropylcellulose) (HPC)
[8] = dose: 100.0 mg/kg/injection, schedule: Q01DX009 (ip), vehicle: Klucel (hydroxypropylcellulose) (HPC)
[9] = dose: 100.0 mg/kg/injection, schedule: Q04DX003 (ip), vehicle: Klucel (hydroxypropylcellulose) (HPC)
[10] = dose: 200.0 mg/kg/injection, schedule: Q04DX003 (ip), vehicle: Klucel (hydroxypropylcellulose) (HPC)
[11] = dose: 400.0 mg/kg/injection, schedule: Q04DX003 (ip), vehicle: Klucel (hydroxypropylcellulose) (HPC)
[12] = dose: 12.5 mg/kg/injection, schedule: Q01DX009 (ip), vehicle: saline with Tween-80
[13] = dose: 25.0 mg/kg/injection, schedule: Q01DX009 (ip), vehicle: saline with Tween-80
[14] = dose: 100.0 mg/kg/injection, schedule: Q01DX Z (ip), vehicle: carboxymethylcellulose (CMC)
[15] = dose: 200.0 mg/kg/injection, schedule: Q01DX009 (ip), vehicle: Klucel (hydroxypropylcellulose) (HPC)
[16] = dose: 200.0 mg/kg/injection, schedule: Q01DX Z (ip), vehicle: carboxymethylcellulose (CMC)
[17] = dose: 100.0 mg/kg/injection, schedule: Q01DX001 (ip), vehicle: carboxymethylcellulose (CMC)
[18] = dose: 200.0 mg/kg/injection, schedule: Q01DX001 (ip), vehicle: carboxymethylcellulose (CMC)
[19] = dose: 400.0 mg/kg/injection, schedule: Q01DX001 (ip), vehicle: carboxymethylcellulose (CMC)
[20] = dose: 400.0 mg/kg/injection, schedule: Q01DX009 (ip), vehicle: Klucel (hydroxypropylcellulose) (HPC)

CNC1C(=O)C2CCC(C2)C1c1ccccc1 (stereo unspecified)
T/C [1]: 108 % of control
T/C [2]: 100 % of control
T/C [3]: 96 % of control

O=c1[nH]c(Cl)ncc1F
T/C [4]: 95 % of control
T/C [5]: 96 % of control
T/C (dose: 300.0 mg/kg/injection, schedule: Q01DX001 (ip), vehicle: saline): 102 % of control

Cc1nc(N)[nH]c(=O)c1CCCCCN
T/C (dose: 100.0 mg/kg/injection, schedule: Q04DX003 (ip), vehicle: saline): 101 % of control
T/C (dose: 200.0 mg/kg/injection, schedule: Q04DX003 (ip), vehicle: saline): 106 % of control
T/C (dose: 400.0 mg/kg/injection, schedule: Q04DX003 (ip), vehicle: saline): 100 % of control

O=C(Nc1ccccc1F)Oc1ccc([N+](=O)[O-])cc1
T/C [6]: 106 % of control
T/C [7]: 95 % of control
T/C [8]: 94 % of control and 112 % of control

CCCCCC(=C/c1ccccc1)/C=N/NC(=O)c1ccc[n+](C)c1
T/C [7]: 90 % of control
T/C [8]: 98 % of control

O=C(N/N=C/c1ccc2c(c1)CCC2)c1ccccc1N=Cc1ccc2c(c1)CCC2
T/C [9]: 86 % of control
T/C [10]: 96 % of control
T/C [11]: 92 % of control

CCOC(=O)NC(=S)n1ncnc1N
T/C (dose: 6.25 mg/kg/injection, schedule: Q01DX009 (ip), vehicle: saline with Tween-80): 105 % of control
T/C [12]: 97 % of control
T/C [13]: 100 % of control
T/C (dose: 35.0 mg/kg/injection, schedule: Q01DX009 (ip), vehicle: saline with Tween-80): 86 % of control

O=C(O)c1ccc(-c2ccccc2)cc1
T/C (dose: 50.0 mg/kg/injection, schedule: Q01DX Z (ip), vehicle: carboxymethylcellulose (CMC)): 92 % of control
T/C [8]: 95 % of control
T/C [14]: 93 % of control
T/C [9]: 104 % of control
T/C [15]: 98 % of control
T/C [16]: 97 % of control
T/C [10]: 93 % of control
T/C [11]: 104 % of control

O=C(C(=O)c1ccc(O)cc1)c1ccccc1
T/C [17]: 103 % of control
T/C [18]: 97 % of control
T/C [19]: 97 % of control

CN(C)C(=O)Nc1cccnc1
T/C (dose: 75.0 mg/kg/injection, schedule: Q04DX003 (ip), vehicle: saline): 97 % of control
T/C (dose: 150.0 mg/kg/injection, schedule: Q04DX003 (ip), vehicle: saline): 106 % of control
T/C (dose: 300.0 mg/kg/injection, schedule: Q04DX003 (ip), vehicle: saline): 101 % of control

COc1ccc(OC(=O)Nc2ccc([N+](=O)[O-])cc2OC)cc1
T/C [8]: 96 % of control
T/C [15]: 95 % of control
T/C [20]: 101 % of control

CCCCCC(=O)NC1CCCCC1
T/C [4]: 89 % of control
T/C [5]: 89 % of control

Cc1cc2nc3c(=O)[nH]c(=O)nc-3n(CC(O)C(O)C(O)C(O)CO)c2cc1C (stereo unspecified)
T/C (dose: 14.12 mg/kg/injection, schedule: Q01DX Z (ip), vehicle: carboxymethylcellulose (CMC)): 91 % of control
T/C (dose: 25.0 mg/kg/injection, schedule: Q01DX015 (ip), vehicle: saline): 100 % of control
T/C (dose: 28.25 mg/kg/injection, schedule: Q01DX Z (ip), vehicle: carboxymethylcellulose (CMC)): 93 % of control
T/C (dose: 50.0 mg/kg/injection, schedule: Q01DX015 (ip), vehicle: saline): 96 % of control
T/C (dose: 56.5 mg/kg/injection, schedule: Q01DX Z (ip), vehicle: carboxymethylcellulose (CMC)): 90 % of control
T/C (dose: 100.0 mg/kg/injection, schedule: Q01DX015 (ip), vehicle: saline): 96 % of control
T/C [14]: 97 % of control
T/C (dose: 113.0 mg/kg/injection, schedule: Q01DX Z (ip), vehicle: carboxymethylcellulose (CMC)): 89 % of control
T/C (dose: 200.0 mg/kg/injection, schedule: Q01DX015 (ip), vehicle: saline): 97 % of control and 98 % of control
T/C [16]: 97 % of control
T/C (dose: 400.0 mg/kg/injection, schedule: Q01DX001 (ip), vehicle: acetone): 103 % of control
T/C (dose: 400.0 mg/kg/injection, schedule: Q01DX015 (ip), vehicle: saline): 92 % of control
T/C (dose: 400.0 mg/kg/injection, schedule: Q01DX Z (ip), vehicle: carboxymethylcellulose (CMC)): 94 % of control
T/C (dose: 800.0 mg/kg/injection, schedule: Q01DX001 (ip), vehicle: acetone): 95 % of control
T/C (dose: 800.0 mg/kg/injection, schedule: Q01DX Z (ip), vehicle: carboxymethylcellulose (CMC)): 90 % of control

COc1cc(N(CCCl)CCCl)c(OC)cc1/C=N/NC(=O)CC(N)C(=O)O (stereo unspecified)
T/C (dose: 12.37 mg/kg/injection, schedule: Q01DX009 (ip), vehicle: saline): 107 % of control
T/C [12]: 113 % of control
T/C (dose: 18.75 mg/kg/injection, schedule: Q01DX009 (ip), vehicle: saline): 112 % of control
T/C [13]: 119 % of control
T/C (dose: 28.12 mg/kg/injection, schedule: Q01DX009 (ip), vehicle: saline): 112 % of control
T/C (dose: 37.5 mg/kg/injection, schedule: Q01DX009 (ip), vehicle: saline): 88 % of control
T/C (dose: 37.5 mg/kg/injection, schedule: Q04DX003 (ip), vehicle: acetone): 111 % of control
T/C (dose: 50.0 mg/kg/injection, schedule: Q01DX009 (ip), vehicle: saline with Tween-80): 119 % of control
T/C [4]: 123 % of control
T/C (dose: 75.0 mg/kg/injection, schedule: Q01DX009 (ip), vehicle: saline): 88 % of control
T/C (dose: 75.0 mg/kg/injection, schedule: Q04DX003 (ip), vehicle: acetone): 105 % of control
T/C [17]: 115 % of control
T/C (dose: 100.0 mg/kg/injection, schedule: Q01DX009 (ip), vehicle: other): 120 % of control
T/C [5]: 123 % of control
T/C (dose: 150.0 mg/kg/injection, schedule: Q04DX003 (ip), vehicle: acetone): 113 % of control
T/C (dose: 177.0 mg/kg/injection, schedule: Q01DX001 (ip), vehicle: carboxymethylcellulose (CMC)): 120 % of control
T/C (dose: 266.0 mg/kg/injection, schedule: Q01DX001 (ip), vehicle: carboxymethylcellulose (CMC)): 124 % of control
T/C [19]: 118 % of control
T/C (dose: 600.0 mg/kg/injection, schedule: Q01DX001 (ip), vehicle: carboxymethylcellulose (CMC)): 153 % of control

S=C(NCc1cccc(Cl)c1)Nc1ccccc1
T/C [6]: 98 % of control
T/C [7]: 106 % of control
T/C [8]: 93 % of control

CCSc1nc(C)cc(Cl)n1
T/C (dose: 100.0 mg/kg/injection, schedule: Q04DX003 (ip), vehicle: saline with Tween-80): 100 % of control
T/C (dose: 200.0 mg/kg/injection, schedule: Q04DX003 (ip), vehicle: saline with Tween-80): 93 % of control

O=C(OCc1ccccc1)c1cc(I)c(OCc2ccccc2)c(I)c1
T/C [1]: 98 % of control
T/C [2]: 98 % of control
T/C [3]: 98 % of control

O=C1/C(=C/c2c(Cl)cccc2Cl)CCC/C1=C\c1c(Cl)cccc1Cl
T/C [8]: 104 % of control
T/C [9]: 111 % of control
T/C [15]: 108 % of control
T/C [10]: 101 % of control
T/C [20]: 90 % of control
T/C [11]: 101 % of control

O=C(Nc1ccc(S(=O)(=O)N2CCCCC2)cc1)OC(c1ccccc1)(c1ccccc1)c1ccccc1
T/C [17]: 94 % of control
T/C [18]: 91 % of control
T/C [19]: 89 % of control

CCSC(C(O)C(O)C(O)CO)n1ccc(N)nc1=O (stereo unspecified)
T/C (dose: 100.0 mg/kg/injection, schedule: Q01DX005 (ip), vehicle: saline): 101 % of control and 104 % of control
T/C (dose: 100.0 mg/kg/injection, schedule: Q01DX009 (ip), vehicle: saline): 106 % of control and 109 % of control
T/C (dose: 200.0 mg/kg/injection, schedule: Q01DX005 (ip), vehicle: saline): 95 % of control and 98 % of control and 101 % of control
T/C (dose: 200.0 mg/kg/injection, schedule: Q01DX009 (ip), vehicle: saline): 106 % of control and 98 % of control
T/C (dose: 400.0 mg/kg/injection, schedule: Q01DX009 (ip), vehicle: saline): 112 % of control and 102 % of control
